# Experiments:
# CCRF-CEM = experiment: NCI in vitro screen, SRB percent growth, Leukemia
# UO-31 = experiment: NCI in vitro screen, SRB percent growth, Renal Cancer
# NCI-H23 = experiment: NCI in vitro screen, SRB percent growth, Non-Small Cell Lung Cancer
# DMS 114 = experiment: cells; conditions: Homo sapiens
# OVCAR-3 = experiment: NCI in vitro screen, SRB percent growth, Ovarian Cancer
# MOLT-4 = experiment: cells; conditions: Homo sapiens
# OVCAR-5 = experiment: NCI in vitro screen, SRB percent growth, Ovarian Cancer
# SF-539 = experiment: NCI in vitro screen, SRB percent growth, CNS Cancer
# KM20L2 = experiment: cells; conditions: Homo sapiens
# SK-MEL-2 = experiment: NCI in vitro screen, SRB percent growth, Melanoma
# HOP-62 = experiment: NCI in vitro screen, SRB percent growth, Non-Small Cell Lung Cancer
# SK-MEL-5 = experiment: NCI in vitro screen, SRB percent growth, Melanoma
# RPMI-8226 = experiment: cells; conditions: Homo sapiens
# UACC-257 = experiment: NCI in vitro screen, SRB percent growth, Melanoma
# SNB-75 = experiment: NCI in vitro screen, SRB percent growth, CNS Cancer
# HCC-2998 = experiment: cells; conditions: Homo sapiens
# U251 = experiment: NCI in vitro screen, SRB percent growth, CNS Cancer
# [1] = Log10 Concentration -4.0, 100 µM
# [2] = Log10 Concentration -7.0, 0.1 µM
# [3] = MOLT-4, read-out: Percent Growth
# [4] = KM-20L2, read-out: Percent Growth
# [5] = RPMI-8226, read-out: Percent Growth
# [6] = HCC 2998, read-out: Percent Growth
smiles,measurement,setting,value
COc1ccc2[nH]c3c(C)c4c(c(C)c3c2c1)CN(C)C=C4 [Formula VII],Percent Growth,CCRF-CEM; [1],-10%
same,Percent Growth,CCRF-CEM; Log10 Concentration -5.0,29%
same,Percent Growth,"CCRF-CEM; Log10 Concentration -6.0, 1 µM",78%
same,Percent Growth,CCRF-CEM; [2],92%
same,TGI,CCRF-CEM; PG=0,54.5 µM
same,GI50,CCRF-CEM; PG=+50,3.65 µM
same,CC50,"CCRF-CEM; read-out: LC-50, PG=-50",> 100 µM
same,Percent Growth,UO-31; [1],10%
same,Percent Growth,UO-31; Log10 Concentration -5.0,83%
same,Percent Growth,"UO-31; Log10 Concentration -6.0, 1 µM",101%
same,Percent Growth,UO-31; [2],112%
same,Percent Growth,UO-31; Log10 Concentration -8.0,119%
same,TGI,UO-31; PG=0,> 100 µM
same,GI50,UO-31; PG=+50,28.4 µM
same,CC50,"UO-31; read-out: LC-50, PG=-50",> 100 µM
same,Percent Growth,NCI-H23; [1],-48%
same,Percent Growth,NCI-H23; Log10 Concentration -5.0,-26%
same,Percent Growth,"NCI-H23; Log10 Concentration -6.0, 1 µM",39%
same,Percent Growth,NCI-H23; [2],97%
same,Percent Growth,NCI-H23; Log10 Concentration -8.0,112%
same,TGI,NCI-H23; PG=0,4.02 µM
same,GI50,NCI-H23; PG=+50,0.648 µM
same,CC50,"NCI-H23; read-out: LC-50, PG=-50",> 100 µM
same,GI50,DMS 114; DMS-114,0.183 µM
same,IC (TGI),"DMS 114; DMS-114, read-out: TGI",1.7 µM
same,Percent Growth,OVCAR-3; [1],-31%
same,Percent Growth,OVCAR-3; Log10 Concentration -5.0,10%
same,Percent Growth,"OVCAR-3; Log10 Concentration -6.0, 1 µM",74%
same,Percent Growth,OVCAR-3; [2],91%
same,Percent Growth,OVCAR-3; Log10 Concentration -8.0,98%
same,TGI,OVCAR-3; PG=0,17.3 µM
same,GI50,OVCAR-3; PG=+50,2.39 µM
same,CC50,"OVCAR-3; read-out: LC-50, PG=-50",> 100 µM
same,GI50,MOLT-4; MOLT-4,0.3 µM
same,CC50,"MOLT-4; MOLT-4, read-out: LC-50",> 100 µM
same,activity at 0.01 µM,MOLT-4; [3],110%
same,activity at 0.1 µM,MOLT-4; [3],68%
same,activity at 1 µM,MOLT-4; [3],30%
same,activity at 10 µM,MOLT-4; [3],8%
same,activity at 100 µM,MOLT-4; [3],-27%
same,IC (TGI),"MOLT-4; MOLT-4, read-out: TGI",16.7 µM
same,Percent Growth,OVCAR-5; [1],-10%
same,Percent Growth,OVCAR-5; Log10 Concentration -5.0,70%
same,Percent Growth,"OVCAR-5; Log10 Concentration -6.0, 1 µM",119%
same,Percent Growth,OVCAR-5; [2],136%
same,Percent Growth,OVCAR-5; Log10 Concentration -8.0,133%
same,TGI,OVCAR-5; PG=0,75.5 µM
same,GI50,OVCAR-5; PG=+50,17.8 µM
same,CC50,"OVCAR-5; read-out: LC-50, PG=-50",> 100 µM
same,Percent Growth,SF-539; [1],-33%
same,Percent Growth,SF-539; Log10 Concentration -5.0,-43%
same,Percent Growth,"SF-539; Log10 Concentration -6.0, 1 µM",30%
same,Percent Growth,SF-539; [2],99%
same,Percent Growth,SF-539; Log10 Concentration -8.0,116%
same,TGI,SF-539; PG=0,2.6 µM
same,GI50,SF-539; PG=+50,0.518 µM
same,CC50,"SF-539; read-out: LC-50, PG=-50",> 100 µM
same,GI50,KM20L2; KM-20L2,3.63 µM
same,CC50,"KM20L2; KM-20L2, read-out: LC-50",> 100 µM
same,activity at 0.01 µM,KM20L2; [4],106%
same,activity at 0.1 µM,KM20L2; [4],104%
same,activity at 1 µM,KM20L2; [4],82%
same,activity at 10 µM,KM20L2; [4],25%
same,activity at 100 µM,KM20L2; [4],-34%
same,IC (TGI),"KM20L2; KM-20L2, read-out: TGI",26.4 µM
same,Percent Growth,SK-MEL-2; [1],-91%
same,Percent Growth,SK-MEL-2; Log10 Concentration -5.0,-23%
same,Percent Growth,"SK-MEL-2; Log10 Concentration -6.0, 1 µM",110%
same,Percent Growth,SK-MEL-2; [2],137%
same,Percent Growth,SK-MEL-2; Log10 Concentration -8.0,125%
same,TGI,SK-MEL-2; PG=0,6.69 µM
same,GI50,SK-MEL-2; PG=+50,2.83 µM
same,CC50,"SK-MEL-2; read-out: LC-50, PG=-50",24.7 µM
same,Percent Growth,HOP-62; [1],-81%
same,Percent Growth,HOP-62; Log10 Concentration -5.0,-57%
same,Percent Growth,"HOP-62; Log10 Concentration -6.0, 1 µM",14%
same,Percent Growth,HOP-62; [2],106%
same,Percent Growth,HOP-62; Log10 Concentration -8.0,115%
same,TGI,HOP-62; PG=0,1.58 µM
same,GI50,HOP-62; PG=+50,0.406 µM
same,CC50,"HOP-62; read-out: LC-50, PG=-50",7.89 µM
same,Percent Growth,SK-MEL-5; [1],-53%
same,Percent Growth,SK-MEL-5; Log10 Concentration -5.0,-53%
same,Percent Growth,"SK-MEL-5; Log10 Concentration -6.0, 1 µM",75%
same,Percent Growth,SK-MEL-5; [2],94%
same,Percent Growth,SK-MEL-5; Log10 Concentration -8.0,99%
same,TGI,SK-MEL-5; PG=0,3.85 µM
same,GI50,SK-MEL-5; PG=+50,1.56 µM
same,CC50,"SK-MEL-5; read-out: LC-50, PG=-50",9.49 µM
same,GI50,RPMI-8226; RPMI-8226,6.31 µM
same,CC50,"RPMI-8226; RPMI-8226, read-out: LC-50",> 100 µM
same,activity at 0.01 µM,RPMI-8226; [5],104%
same,activity at 0.1 µM,RPMI-8226; [5],101%
same,activity at 1 µM,RPMI-8226; [5],99%
same,activity at 10 µM,RPMI-8226; [5],38%
same,activity at 100 µM,RPMI-8226; [5],-38%
same,IC (TGI),"RPMI-8226; RPMI-8226, read-out: TGI",31.5 µM
same,Percent Growth,UACC-257; [1],-5%
same,Percent Growth,"UACC-257; Log10 Concentration -6.0, 1 µM",108%
same,Percent Growth,UACC-257; [2],113%
same,Percent Growth,UACC-257; Log10 Concentration -8.0,110%
same,TGI,UACC-257; PG=0,80.7 µM
same,GI50,UACC-257; PG=+50,9.63 µM
same,CC50,"UACC-257; read-out: LC-50, PG=-50",> 100 µM
same,Percent Growth,SNB-75; [1],-58%
same,Percent Growth,SNB-75; Log10 Concentration -5.0,-78%
same,Percent Growth,"SNB-75; Log10 Concentration -6.0, 1 µM",-53%
same,Percent Growth,SNB-75; [2],86%
same,Percent Growth,SNB-75; Log10 Concentration -8.0,126%
same,TGI,SNB-75; PG=0,0.416 µM
same,CC50,"SNB-75; read-out: LC-50, PG=-50",0.953 µM
same,GI50,HCC-2998; HCC 2998,4.74 µM
same,CC50,"HCC-2998; HCC 2998, read-out: LC-50",43.9 µM
same,activity at 0.01 µM,HCC-2998; [6],111%
same,activity at 0.1 µM,HCC-2998; [6],90%
same,activity at 1 µM,HCC-2998; [6],98%
same,activity at 10 µM,HCC-2998; [6],27%
same,activity at 100 µM,HCC-2998; [6],-93%
same,IC (TGI),"HCC-2998; HCC 2998, read-out: TGI",16.8 µM
same,Percent Growth,U251; [1],-47%
same,Percent Growth,U251; Log10 Concentration -5.0,-45%
same,Percent Growth,"U251; Log10 Concentration -6.0, 1 µM",3%
same,Percent Growth,U251; [2],87%
same,TGI,U251; PG=0,1.18 µM
same,GI50,U251; PG=+50,0.276 µM
same,CC50,"U251; read-out: LC-50, PG=-50",> 100 µM
